This is an account of results in publication PMC8111572 (Inorganic chemistry, 2020).

The conditions of data set [1]: protonation constant, cited from earlier work.
Data set [2] can be described thus: Ligand protonation constants by potentiometric titration. It is filed as physicochemical. The note with it: protonation constant, 25.0 °C, 0.1 M KCl.
A short description of another data set: pLa value. Format: binding. The note with it: −log [M]free when [M]total = 10^−6 M and [L]total = 10^−5 M at pH = 7.4; calculated (Table S1).
A short description of a further data set: pLu value. It is filed as binding. Conditions: −log [M]free when [M]total = 10^−6 M and [L]total = 10^−5 M at pH = 7.4; calculated (Table S1).
The conditions of data set [3]: cited from earlier work.
The conditions of data set [4]: −log [M]free when [M]total = 10^−6 M and [L]total = 10^−5 M at pH = 7.4; cited from earlier work.
For data set [5] the following is noted: −log [M]free when [M]total = 10^−6 M and [L]total = 10^−5 M at pH = 7.4; cited from earlier work. This is another data set of the same source.
The conditions of data set [6]: cited from earlier work. This is another data set of the same source.

Structures are written as SMILES. Where two headings read alike, the source gives them in different places. Marks after values point to notes of the source that are not given here.

Turning to `O=C(O)CN(CCOCCN(CC(=O)O)CC(=O)O)CC(=O)O` [OBETA], in data set [1] (0.1 M KCl), the “log K1” value is 9.34^e, the “log K2” value is 8.62^e, the “log K3” value is recorded as 3.19^e and the “log K4” value is 2.19^e. Besides, in data set [1] (0.1 M KCl), the “log K5” value was 1.77^e.
`CN(CCOCCN(C)Cc1cccc(C(=O)O)n1)Cc1cccc(C(=O)O)n1` [OxyMepa, 6,6’-(((oxybis(ethane-2,1-diyl))bis(methylazanediyl))bis(methylene))dipicolinic acid]: in data set [2], the “log K1” value was 8.72(1), the “log K2” value was 7.81(2), the “log K3” value is 3.09(2) and the “log K4” value is 2.35(4).
Regarding `O=C(O)CN(CCOCCN(CC(=O)O)Cc1cccc(C(=O)O)n1)Cc1cccc(C(=O)O)n1` [Oxyaapa, 6,6’-(((oxybis(ethane-2,1-diyl))bis((carboxymethyl)azanediyl))bis(methylene))dipicolinic acid], the pLa in “pLa value” was 18.5. Also, in data set [2], the “log K1” value is 8.47(4), the “log K2” value is 7.63(2), the “log K3” value was 3.66(4) and the “log K4” value is given as 2.90(1). In addition, the “log K5” value in data set [2] was 1.77(12). For the same molecule, the pLu in “pLu value” was 21.1.
Take `Cc1cccc(C)n1` [2,6-dimethylpyridinium cation]: in data set [3], the pKa is 6.7.
As for `O=C(O)CN(Cc1cccc(CN(CC(=O)O)Cc2cccc(C(=O)O)n2)n1)Cc1cccc(C(=O)O)n1` [Pypa], the pLu in data set [4] is reported as 22.6. For the same molecule, the pLa in data set [5] is 19.9.
As to `O=C(O)c1ccccn1` [pyridinium-2-carboxylic acid], the pKa in data set [3] is 5.39.
On to `O=C([O-])CN1CCN(CC(=O)[O-])CCN(CC(=O)[O-])CCN(CC(=O)[O-])CC1.[Gd+3]` [Gd-DOTA], for which the “kex298 (water exchange rate constant)” value in data set [6] was 4.1e+06 s⁻¹.
Regarding `O=C([O-])CN(CCN(CC(=O)[O-])CC(=O)O)CCN(CC(=O)[O-])CC(=O)O.[Gd+3]` [Gd-DTPA], in data set [6], the “kex298 (water exchange rate constant)” value is 3.3e+06 s⁻¹.
As to `O=C(O)CN(CCN(CC(=O)O)Cc1cccc(C(=O)O)n1)Cc1cccc(C(=O)O)n1` [Octapa], the pLu in data set [4] is given as 19.8. In data set [1] (0.15 M NaCl), the “log K1” value was 8.52, the “log K2” value was 5.40, the “log K3” value is reported as 3.65 and the “log K4” value was 2.97. Besides, in data set [1] (0.15 M NaCl), the “log K5” value was 1.66. Moreover, in data set [1] (0.16 M NaCl), the “log K1” value was 8.58, the “log K2” value is reported as 5.43, the “log K3” value is on record as 3.75 and the “log K4” value was 3.08. The “log K5” value in data set [1] (0.16 M NaCl) is listed as 2.21. The pLa in data set [5] is reported as 19.7.
